Measured values: ChEMBL document CHEMBL6109146, “Discovery of New Pyrazolone Carbothioamide Derivatives as Potent Antifungal Agents for the Treatment of Candidiasis and Cryptococcosis” (J Med Chem, 2025)
Values after ≈ are worked out from the molar mass of the structure shown. Active and inactive are the calls of the source. The rule behind the calls is not given here.

Tests used:
Candida glabrata = assay: Binding affinity to Candida glabrata KIX domain assessed as inhibition constant
Nakaseomyces glabratus [1] = assay: Antifungal activity against Candida glabrata 9256 assessed as inhibition of fungal growth incubated for 48 to 72 hrs by microplate reader analysis; type: functional; conditions: time 48-72 hrs
Cryptococcus neoformans [2] = assay: Inhibition of capsule formation in Cryptococcus neoformans H99 at 8 microg/ml incubated for 24 hrs by light microscopic analysis; type: functional
[Candida] auris [3] = Antifungal activity against Candida auris 0029 assessed as inhibition of fungal growth incubated for 48 to 72 hrs by microplate reader analysis; type: functional, organism-based; conditions: Candidozyma auris, time 48-72 hrs
Cryptococcus neoformans [4] = assay: Inhibition of urease production in Cryptococcus neoformans H99 at 0.125 microg/ml by photographic analysis relative to control; type: functional
Nakaseomyces glabratus [5] = assay: Antifungal activity against Candida glabrata 0161 assessed as inhibition of fungal growth at 0.5 to 32 microg/ml incubated for 48 hrs by spot-plating assay; type: functional, organism-based; conditions: dose 0.5-32 µg/ml
Nakaseomyces glabratus [6] = assay: Antifungal activity against Candida glabrata 0161 infected in candidiasis female ICR mouse model assessed as reduction in fungal burden in kidney at 20 mg/kg, po pre-infected with fungi for 3 hrs followed by compound administration and measured after 5 days; type: functional, organism-based; conditions: time 5.0 day
Nakaseomyces glabratus [7] = assay: Inhibition of matured biofilm in Candida glabrata 0161 at 2 to 32 microg/ml incubated for 24 hrs by XTT reagent based assay; type: functional, organism-based; conditions: dose 2-32 µg/ml
Nakaseomyces glabratus [8] = assay: Induction of oxidative damage Candida glabrata 0161 assessed as increase in MDA level incubated for 24 hrs; type: functional, organism-based
Nakaseomyces glabratus [9] = assay: Antifungal activity against Candida glabrata 0161 infected in candidiasis female ICR mouse model assessed as tight arrangement of renal tubular epithelial cells at 20 mg/kg, ip pre-infected with fungi for 3 hrs followed by compound administration and measured after 5 days by H and E staining based analysis; type: functional, organism-based; conditions: time 5.0 day
Cryptococcus neoformans [10] = assay: (§1) Antifungal activity against Cryptococcus neoformans H99 infected in cryptococcosis female ICR mouse model assessed as reduction in cysts formation in brain cortex at 5 mg/kg, ip pre-infected with fungi for 3 hrs followed by compound administration and measured after 5 days by H and E staining based analysis; type: functional, organism-based; conditions: time 5.0 day
[11] = Half-life in male ICR mouse at 2 mg/kg, iv measured after 24 hrs by LC-MS/MS analysis; type: ADME, organism-based; conditions: in vivo
[12] = Volume of distribution at steady state in male ICR mouse at 2 mg/kg, iv measured after 24 hrs by LC-MS/MS analysis; type: ADME, organism-based; conditions: in vivo, read-out: Vdss
Nakaseomyces glabratus [13] = assay: Upregulation of TRR1 gene expression in Candida glabrata 0161 incubated for 8 hrs by qRT-PCR analysis; type: functional
[14] = Clearance in male ICR mouse at 2 mg/kg, iv measured after 24 hrs by LC-MS/MS analysis; type: ADME, organism-based; conditions: in vivo
[15] = Antifungal activity against Cryptococcus gattii 01063P assessed as inhibition of fungal growth incubated for 48 to 72 hrs by microplate reader analysis; type: functional; conditions: time 48-72 hrs
Cryptococcus neoformans [16] = assay: Antifungal activity against Cryptococcus neoformans H99 assessed as inhibition of fungal growth by measuring fold increase in MIC in presence of Fe(III) ion; type: functional
Cryptococcus neoformans [17] = assay: Antifungal activity against Cryptococcus neoformans H99 assessed as inhibition of fungal growth incubated for 48 to 72 hrs by microplate reader analysis; type: functional; conditions: time 48-72 hrs
[Candida] auris [18] = Antifungal activity against Candida auris 15448 assessed as inhibition of fungal growth incubated for 48 to 72 hrs by microplate reader analysis; type: functional, organism-based; conditions: Candidozyma auris, time 48-72 hrs
Cryptococcus neoformans [19] = assay: as §1, with “as intact cellular structures” for “as reduction in cysts formation”, “at 20” for “at 5”; type: functional, organism-based; conditions: time 5.0 day
Cryptococcus neoformans [20] = assay: Antifungal activity against Cryptococcus neoformans H99 infected in cryptococcosis female ICR mouse model assessed as neat arrangement of neuronal cells at 5 to 20 mg/kg, ip pre-infected with fungi for 3 hrs followed by compound administration and measured after 5 days by H and E staining based analysis; type: functional, organism-based; conditions: dose 5-20 mg/kg, time 5.0 day
Cryptococcus neoformans [21] = assay: Antifungal activity against Cryptococcus neoformans H99 infected in cryptococcosis female ICR mouse model assessed as dense arrangement of neuronal cells at 20 mg/kg, ip pre-infected with fungi for 3 hrs followed by compound administration and measured after 5 days by H and E staining based analysis; type: functional, organism-based; conditions: time 5.0 day
Cryptococcus neoformans [22] = assay: Antifungal activity against Cryptococcus neoformans 011409 assessed as inhibition of fungal growth incubated for 48 to 72 hrs by microplate reader analysis; type: functional; conditions: time 48-72 hrs
Nakaseomyces glabratus [23] = assay: Antifungal activity against Candida glabrata 0161 assessed as inhibition of fungal growth at 32 microg/ml incubated for 48 hrs by spot-plating assay; type: functional, organism-based; conditions: dose 32.0 µg/ml
Cryptococcus neoformans [24] = assay: Inhibition of capsule formation in Cryptococcus neoformans H99 at 4 microg/ml incubated for 24 hrs by light microscopic analysis; type: functional, organism-based; conditions: dose 4.0 µg/ml
Cryptococcus neoformans [25] = assay: Antifungal activity against Cryptococcus neoformans H99 assessed as inhibition of fungal growth by measuring fold increase in MIC in presence of Fe(II) ion; type: functional
Cryptococcus neoformans [26] = assay: Antifungal activity against Cryptococcus neoformans H99 infected in cryptococcosis female ICR mouse model assessed as reduction in fungal burden in brain at 20 mg/kg, ip pre-infected with fungi for 3 hrs followed by compound administration and measured after 5 days; type: functional, organism-based; conditions: time 5.0 day
Nakaseomyces glabratus [27] = assay: Antifungal activity against Candida glabrata 8535 assessed as inhibition of fungal growth incubated for 48 to 72 hrs by microplate reader analysis; type: functional; conditions: time 48-72 hrs
Cryptococcus neoformans [28] = assay: Upregulation of TRX1 gene expression in Cryptococcus neoformans H99 at 4 microg/ml incubated for 8 hrs by qRT-PCR analysis; type: functional; conditions: dose 4.0 µg/ml
Cryptococcus neoformans [29] = assay: Induction of morphological changes in Cryptococcus neoformans H99 assessed as cell membrane damage by measuring plasmolysis at 4 microg/ml incubated for 8 hrs by transmission electron microscopic analysis; type: functional, organism-based; conditions: dose 4.0 µg/ml
Cryptococcus neoformans [30] = assay: Antifungal activity against Cryptococcus neoformans HN-68 assessed as inhibition of fungal growth incubated for 48 to 72 hrs by microplate reader analysis; type: functional; conditions: time 48-72 hrs
[31] = Oral bioavailability in male ICR mouse at 20 mg/kg measured after 24 hrs by LC-MS/MS analysis; type: ADME, organism-based; conditions: in vivo
Cryptococcus neoformans [32] = assay: Induction of morphological changes in Cryptococcus neoformans H99 assessed as mitochondrial fragmentation at 4 microg/ml incubated for 8 hrs by transmission electron microscopic analysis; type: functional, organism-based; conditions: dose 4.0 µg/ml
Cryptococcus neoformans [33] = assay: Upregulation of TRR1 gene expression in Cryptococcus neoformans H99 at 4 microg/ml incubated for 8 hrs by qRT-PCR analysis; type: functional; conditions: dose 4.0 µg/ml
Cryptococcus neoformans [34] = assay: Antifungal activity against Cryptococcus neoformans H99 assessed as inhibition of fungal growth at 0.13 microg/ml incubated for 72 hrs by microplate reader analysis relative to control; type: functional
[35] = AUC (0 to t) in male ICR mouse at 2 mg/kg, iv measured after 24 hrs by LC-MS/MS analysis; type: ADME, organism-based; conditions: in vivo
[36] = Cmax in male ICR mouse at 2 mg/kg, iv measured after 24 hrs by LC-MS/MS analysis; type: ADME, organism-based; conditions: in vivo
Nakaseomyces glabratus [37] = assay: Antifungal activity against Candida glabrata 0161 assessed as inhibition of fungal growth incubated for 48 to 72 hrs by microplate reader analysis; type: functional; conditions: time 48-72 hrs
Cryptococcus neoformans [38] = assay: Inhibition of melanin production in Cryptococcus neoformans H99 at 0.125 microg/ml by photographic analysis relative to control; type: functional
Cryptococcus neoformans [39] = assay: Antifungal activity against Cryptococcus neoformans H99 assessed as inhibition of fungal growth at 0.031 microg/ml incubated for 72 hrs by microplate reader analysis; type: functional, organism-based; conditions: dose 0.031 µg/ml
Cryptococcus neoformans [40] = assay: Antifungal activity against Cryptococcus neoformans H99 assessed as inhibition of fungal growth at <0.0078 microg/ml incubated for 72 hrs by microplate reader analysis; type: functional, organism-based; conditions: dose < 0.0078 µg/ml

K (Candida glabrata): 174 µM | MIC80 (Nakaseomyces glabratus [1]): 1.2 10^-4 ug/ml | half-life [11]: 2.12 h | Vd [12]: 1.47 L/kg | clearance [14]: 16.2 mL/min/kg | MIC80 [15]: 1.2 10^-4 ug/ml | MIC80 (Cryptococcus neoformans [17]): 0.38 nM (≈ 0.12 ng/mL) | MIC80 (Cryptococcus neoformans [22]): 1.2 10^-4 ug/ml | MIC80 (Nakaseomyces glabratus [27]): 1.2 10^-4 ug/ml | MIC80 (Cryptococcus neoformans [30]): 1.2 10^-4 ug/ml | bioavailability [31]: 22.6% | AUC(0-t) at 24 h [35]: 2040 ng·h/mL | Cmax [36]: 2810 ng/mL | MIC80 (Nakaseomyces glabratus [37]): 0.38 nM (≈ 0.12 ng/mL)
Structure (SMILES): Nc1cc(=O)n(C(=S)Nc2ccc(C3CCCCC3)cc2)[nH]1
inhibition at 8 µg/mL (Cryptococcus neoformans [2]): 100% | Activity ([Candida] auris [3]): Active | inhibition at 0.125 µg/mL (Cryptococcus neoformans [4]): 100% | Activity (Nakaseomyces glabratus [5]): Active | Activity (Nakaseomyces glabratus [6]): Active | inhibition (Nakaseomyces glabratus [7]): Moderate_effect | Activity (Nakaseomyces glabratus [8]): Active | Activity (Nakaseomyces glabratus [9]): Active | Activity (Cryptococcus neoformans [10]): Active | Activity (Nakaseomyces glabratus [13]): Active | fold change (FC) (Cryptococcus neoformans [16]): ~1000 | Activity ([Candida] auris [18]): Active | Activity (Cryptococcus neoformans [19]): Active | Activity (Cryptococcus neoformans [20]): Active | Activity (Cryptococcus neoformans [21]): Active | Activity (Nakaseomyces glabratus [23]): Moderate_effect | inhibition (Cryptococcus neoformans [24]): Active | fold change (FC) (Cryptococcus neoformans [25]): ~1000 | Activity (Cryptococcus neoformans [26]): Active | Activity (Cryptococcus neoformans [28]): Active | Activity (Cryptococcus neoformans [29]): Active | Activity (Cryptococcus neoformans [32]): Active | Activity (Cryptococcus neoformans [33]): Active | inhibition at 0.13 µg/mL (Cryptococcus neoformans [34]): 100% | inhibition at 0.125 µg/mL (Cryptococcus neoformans [38]): 100% | Activity (Cryptococcus neoformans [39]): Active; Significantly Better Inhibitory Effect Observed Than Fluconazole At 8.0 Microg/Ml | Activity (Cryptococcus neoformans [40]): Not active; Decrease In Inhibitory Potency Observed
